{
  "source": "ChEMBL document CHEMBL4330132",
  "about": "“5-Keto-3-cyano-2,4-diaminothiophenes as selective maternal embryonic leucine zipper kinase inhibitors” (Bioorg Med Chem Lett, 2019)",
  "key": {"[1]": {"target": "Serine/threonine-protein kinase D2 (Homo sapiens) (UniProt Q9BZL6)", "assay": "Binding affinity to wild-type human partial length PRKD2 (A519 to E838 residues) expressed in bacterial expression system assessed as residual binding level at 1 uM by Kinomescan method relative to control"}, "[2]": {"target": "RAC-alpha serine/threonine-protein kinase (Homo sapiens) (UniProt P31749)", "assay": "Binding affinity to wild-type human partial length AKT1 expressed in bacterial expression system assessed as residual binding level at 1 uM by Kinomescan method relative to control"}, "[3]": {"target": "Cyclin-dependent kinase 3 (Homo sapiens) (UniProt Q00526)", "assay": "Binding affinity to wild-type human full length CDK3 (M1 to H305 residues) expressed in bacterial expression system assessed as residual binding level at 1 uM by Kinomescan method relative to control"}, "[4]": {"target": "Calcium/calmodulin-dependent protein kinase type IV (Homo sapiens) (UniProt Q16566)", "assay": "Binding affinity to wild-type human partial length CAMK4 (A22 to A322 residues) expressed in bacterial expression system assessed as residual binding level at 1 uM by Kinomescan method relative to control"}, "[5]": {"target": "Homeodomain-interacting protein kinase 1 (Homo sapiens) (UniProt Q86Z02)", "assay": "Binding affinity to wild-type human partial length HIPK1 (M146 to I555 residues) expressed in mammalian expression system assessed as residual binding level at 1 uM by Kinomescan method relative to control"}, "[6]": {"target": "NUAK family SNF1-like kinase 1 (Homo sapiens) (UniProt O60285)", "assay": "Binding affinity to wild-type human partial length ARK5 (E25 to I332 residues) expressed in bacterial expression system assessed as residual binding level at 1 uM by Kinomescan method relative to control"}, "[7]": {"target": "3-phosphoinositide-dependent protein kinase 1 (Homo sapiens) (UniProt O15530)", "sequence (O15530 whole entry, the tested form may be a part)": "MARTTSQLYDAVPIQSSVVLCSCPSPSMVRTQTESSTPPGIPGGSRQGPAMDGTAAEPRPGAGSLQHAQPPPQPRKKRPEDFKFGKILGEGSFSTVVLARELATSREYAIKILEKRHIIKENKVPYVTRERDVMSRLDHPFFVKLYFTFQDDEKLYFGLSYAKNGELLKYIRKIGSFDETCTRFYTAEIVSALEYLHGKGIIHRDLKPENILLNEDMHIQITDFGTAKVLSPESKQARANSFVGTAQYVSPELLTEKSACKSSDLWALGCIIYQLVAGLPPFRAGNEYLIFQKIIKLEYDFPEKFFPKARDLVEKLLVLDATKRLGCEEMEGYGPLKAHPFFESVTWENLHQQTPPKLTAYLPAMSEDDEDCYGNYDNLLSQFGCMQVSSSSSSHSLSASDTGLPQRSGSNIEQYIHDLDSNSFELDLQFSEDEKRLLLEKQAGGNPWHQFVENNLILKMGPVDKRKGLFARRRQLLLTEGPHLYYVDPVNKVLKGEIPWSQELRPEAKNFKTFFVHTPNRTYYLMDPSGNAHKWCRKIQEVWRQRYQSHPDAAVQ", "assay": "Binding affinity to wild-type human full length PDPK1 (M1 to Q556 residues) expressed in bacterial expression system assessed as residual binding level at 1 uM by Kinomescan method relative to control"}, "[8]": {"target": "Tyrosine-protein kinase JAK3 (Homo sapiens) (UniProt P52333)", "sequence (P52333 whole entry, the tested form may be a part)": "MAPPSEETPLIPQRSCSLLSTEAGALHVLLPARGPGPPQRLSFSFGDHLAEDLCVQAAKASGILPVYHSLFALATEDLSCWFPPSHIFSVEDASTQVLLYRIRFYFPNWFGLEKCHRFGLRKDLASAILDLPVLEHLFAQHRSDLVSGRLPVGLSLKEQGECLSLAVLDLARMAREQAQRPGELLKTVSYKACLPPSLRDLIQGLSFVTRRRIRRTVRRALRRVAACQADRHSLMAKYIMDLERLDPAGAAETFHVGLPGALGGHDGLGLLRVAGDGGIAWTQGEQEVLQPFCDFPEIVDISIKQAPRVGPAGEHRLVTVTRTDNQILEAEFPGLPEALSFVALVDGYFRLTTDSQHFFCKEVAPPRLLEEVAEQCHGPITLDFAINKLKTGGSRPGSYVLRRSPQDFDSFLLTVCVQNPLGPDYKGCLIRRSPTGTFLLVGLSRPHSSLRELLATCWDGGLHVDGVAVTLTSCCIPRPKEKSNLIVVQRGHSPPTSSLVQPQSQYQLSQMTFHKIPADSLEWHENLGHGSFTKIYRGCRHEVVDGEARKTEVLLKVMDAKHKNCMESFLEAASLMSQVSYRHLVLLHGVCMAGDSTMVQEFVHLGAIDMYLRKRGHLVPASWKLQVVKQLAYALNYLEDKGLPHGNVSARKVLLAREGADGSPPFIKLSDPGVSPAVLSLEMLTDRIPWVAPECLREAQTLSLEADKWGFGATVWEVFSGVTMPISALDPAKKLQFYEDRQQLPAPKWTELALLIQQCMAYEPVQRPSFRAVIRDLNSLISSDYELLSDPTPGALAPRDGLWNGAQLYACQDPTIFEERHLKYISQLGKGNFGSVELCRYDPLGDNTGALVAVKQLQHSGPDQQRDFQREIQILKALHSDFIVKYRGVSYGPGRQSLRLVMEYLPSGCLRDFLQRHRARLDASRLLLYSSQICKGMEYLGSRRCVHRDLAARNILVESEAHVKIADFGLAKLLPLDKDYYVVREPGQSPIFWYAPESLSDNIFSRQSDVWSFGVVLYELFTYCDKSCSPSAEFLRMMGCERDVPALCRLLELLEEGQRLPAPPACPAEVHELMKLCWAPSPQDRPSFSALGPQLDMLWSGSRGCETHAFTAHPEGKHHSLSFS", "assay": "Binding affinity to wild-type human partial length JAK3 JH1 catalytic domain (I781 to S1124 residues) expressed in mammalian expression system assessed as residual binding level at 1 uM by Kinomescan method relative to control"}, "[9]": {"system": "Receptor-type tyrosine-protein kinase FLT3 (Homo sapiens), P36888 [N841I]", "assay": "Binding affinity to human partial length FLT3 N841I mutant (V592 to Y969 residues) expressed in bacterial expression system assessed as residual binding level at 1 uM by Kinomescan method relative to control"}, "[10]": {"system": "Mast/stem cell growth factor receptor Kit (Homo sapiens), P10721 [V559D]", "assay": "Binding affinity to human partial length KIT V559D mutant (Y545 to D952 residues) expressed in bacterial expression system assessed as residual binding level at 1 uM by Kinomescan method relative to control"}, "[11]": {"target": "Mitogen-activated protein kinase kinase kinase 4 (Homo sapiens) (UniProt Q9Y6R4)", "assay": "Binding affinity to wild-type human partial length MAP3K4 (G1319 to E1608 residues) expressed in bacterial expression system assessed as residual binding level at 1 uM by Kinomescan method relative to control"}, "[12]": {"target": "Serine/threonine-protein kinase 17A (Homo sapiens) (UniProt Q9UEE5)", "sequence (Q9UEE5 whole entry, the tested form may be a part)": "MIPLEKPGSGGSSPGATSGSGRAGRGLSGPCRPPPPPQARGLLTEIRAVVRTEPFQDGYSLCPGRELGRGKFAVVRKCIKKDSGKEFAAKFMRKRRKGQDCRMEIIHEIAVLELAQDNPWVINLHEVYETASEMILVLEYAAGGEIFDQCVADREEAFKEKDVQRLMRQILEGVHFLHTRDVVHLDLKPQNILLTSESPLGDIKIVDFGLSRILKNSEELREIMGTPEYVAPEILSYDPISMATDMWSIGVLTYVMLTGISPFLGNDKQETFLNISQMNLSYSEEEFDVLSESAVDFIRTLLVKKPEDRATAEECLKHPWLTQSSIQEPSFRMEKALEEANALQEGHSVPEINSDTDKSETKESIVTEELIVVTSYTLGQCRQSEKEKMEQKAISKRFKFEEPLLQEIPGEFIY", "assay": "Binding affinity to wild-type human partial length DRAK1 (R32 to E363 residues) expressed in bacterial expression system assessed as residual binding level at 1 uM by Kinomescan method relative to control"}, "[13]": {"target": "Myotonin-protein kinase (Homo sapiens) (UniProt Q09013)", "sequence (Q09013 whole entry, the tested form may be a part)": "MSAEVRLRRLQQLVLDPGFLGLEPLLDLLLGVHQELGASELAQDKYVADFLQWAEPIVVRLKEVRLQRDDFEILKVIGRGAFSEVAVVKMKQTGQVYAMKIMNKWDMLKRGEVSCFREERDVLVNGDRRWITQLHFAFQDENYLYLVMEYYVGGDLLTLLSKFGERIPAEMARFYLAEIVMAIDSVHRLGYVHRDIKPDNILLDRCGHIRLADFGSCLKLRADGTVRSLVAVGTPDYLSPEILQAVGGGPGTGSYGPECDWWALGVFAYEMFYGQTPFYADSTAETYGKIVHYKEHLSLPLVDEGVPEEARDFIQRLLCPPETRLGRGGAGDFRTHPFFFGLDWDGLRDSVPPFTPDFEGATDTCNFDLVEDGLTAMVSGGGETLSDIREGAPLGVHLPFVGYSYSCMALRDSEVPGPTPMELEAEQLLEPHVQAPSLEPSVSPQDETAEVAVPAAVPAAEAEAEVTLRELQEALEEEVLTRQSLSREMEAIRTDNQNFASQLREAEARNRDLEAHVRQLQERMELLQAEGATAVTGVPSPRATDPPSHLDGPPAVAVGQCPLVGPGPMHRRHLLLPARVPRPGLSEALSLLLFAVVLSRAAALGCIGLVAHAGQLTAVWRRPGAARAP", "assay": "Binding affinity to wild-type human partial length DMPK (V47 to V415 residues) expressed in bacterial expression system assessed as residual binding level at 1 uM by Kinomescan method relative to control"}, "[14]": {"target": "Serine/threonine-protein kinase 32C (Homo sapiens) (UniProt Q86UX6)", "sequence (Q86UX6 whole entry, the tested form may be a part)": "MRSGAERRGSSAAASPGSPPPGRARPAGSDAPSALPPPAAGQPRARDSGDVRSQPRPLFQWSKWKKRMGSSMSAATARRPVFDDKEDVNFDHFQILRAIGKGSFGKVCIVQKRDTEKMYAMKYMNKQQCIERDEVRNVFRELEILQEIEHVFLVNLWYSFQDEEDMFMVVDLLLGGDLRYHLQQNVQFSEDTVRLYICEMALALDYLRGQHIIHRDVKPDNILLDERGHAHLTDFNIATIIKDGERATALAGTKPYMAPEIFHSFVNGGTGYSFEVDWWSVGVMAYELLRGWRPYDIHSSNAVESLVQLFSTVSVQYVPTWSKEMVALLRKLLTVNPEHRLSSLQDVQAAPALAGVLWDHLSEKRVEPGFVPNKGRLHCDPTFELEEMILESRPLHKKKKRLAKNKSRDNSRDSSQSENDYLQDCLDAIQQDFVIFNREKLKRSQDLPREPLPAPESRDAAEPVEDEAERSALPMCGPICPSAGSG", "assay": "Binding affinity to wild-type human partial length YANK3 (M68 to G486 residues) expressed in bacterial expression system assessed as residual binding level at 1 uM by Kinomescan method relative to control"}, "[15]": {"target": "Dual specificity mitogen-activated protein kinase kinase 2 (Homo sapiens) (UniProt P36507)", "assay": "Binding affinity to wild-type human full length MEK2 (M1 to V400 residues) expressed in mammalian expression system assessed as residual binding level at 1 uM by Kinomescan method relative to control"}, "[16]": {"target": "Serine/threonine-protein kinase MRCK gamma (Homo sapiens) (UniProt Q6DT37)", "assay": "Binding affinity to wild-type human partial length DMPK2 (S46 to S408 residues) expressed in bacterial expression system assessed as residual binding level at 1 uM by Kinomescan method relative to control"}, "[17]": {"target": "Cyclin-G-associated kinase (Homo sapiens) (UniProt O14976)", "sequence (O14976 whole entry, the tested form may be a part)": "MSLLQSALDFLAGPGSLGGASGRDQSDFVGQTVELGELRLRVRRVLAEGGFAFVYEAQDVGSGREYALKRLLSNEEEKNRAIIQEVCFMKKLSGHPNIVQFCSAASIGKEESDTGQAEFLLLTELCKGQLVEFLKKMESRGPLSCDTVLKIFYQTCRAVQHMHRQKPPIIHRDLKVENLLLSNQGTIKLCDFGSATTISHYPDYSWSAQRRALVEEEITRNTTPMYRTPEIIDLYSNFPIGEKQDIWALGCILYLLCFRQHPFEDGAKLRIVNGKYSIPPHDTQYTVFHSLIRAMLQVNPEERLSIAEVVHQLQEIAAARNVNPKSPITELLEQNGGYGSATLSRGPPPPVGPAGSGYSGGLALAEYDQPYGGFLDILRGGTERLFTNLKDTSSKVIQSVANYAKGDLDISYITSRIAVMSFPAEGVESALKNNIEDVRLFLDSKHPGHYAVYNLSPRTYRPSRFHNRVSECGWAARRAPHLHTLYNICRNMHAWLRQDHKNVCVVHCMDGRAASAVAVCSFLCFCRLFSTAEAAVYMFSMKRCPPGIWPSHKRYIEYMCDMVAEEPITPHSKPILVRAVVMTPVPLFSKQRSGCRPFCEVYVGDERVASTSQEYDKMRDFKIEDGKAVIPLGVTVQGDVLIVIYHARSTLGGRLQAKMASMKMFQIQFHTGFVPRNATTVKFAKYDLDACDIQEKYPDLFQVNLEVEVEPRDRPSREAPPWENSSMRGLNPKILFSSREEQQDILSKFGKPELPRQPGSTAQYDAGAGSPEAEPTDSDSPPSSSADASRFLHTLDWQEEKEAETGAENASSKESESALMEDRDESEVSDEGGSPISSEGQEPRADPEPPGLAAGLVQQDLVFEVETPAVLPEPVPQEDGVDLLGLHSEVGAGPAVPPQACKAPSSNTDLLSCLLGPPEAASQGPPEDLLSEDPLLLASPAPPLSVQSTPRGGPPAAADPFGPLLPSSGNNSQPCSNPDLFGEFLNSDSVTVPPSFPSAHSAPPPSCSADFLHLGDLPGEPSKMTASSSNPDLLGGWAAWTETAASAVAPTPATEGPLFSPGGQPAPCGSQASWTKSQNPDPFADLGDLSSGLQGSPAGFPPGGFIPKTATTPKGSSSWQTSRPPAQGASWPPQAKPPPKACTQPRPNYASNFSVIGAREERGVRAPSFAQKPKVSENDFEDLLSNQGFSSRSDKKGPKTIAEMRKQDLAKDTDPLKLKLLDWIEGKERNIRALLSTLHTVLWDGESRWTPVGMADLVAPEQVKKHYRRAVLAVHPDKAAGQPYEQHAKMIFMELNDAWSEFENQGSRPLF", "assay": "Binding affinity to wild-type human partial length GAK (G13 to Y338 residues) expressed in bacterial expression system assessed as residual binding level at 1 uM by Kinomescan method relative to control"}, "[18]": {"system": "Phosphatidylinositol 4,5-bisphosphate 3-kinase catalytic subunit alpha isoform (Homo sapiens), P42336 [Q546K]", "assay": "Binding affinity to human partial length PIK3CA Q546K mutant (R108 to N1068 residues) expressed in mammalian expression system assessed as residual binding level at 1 uM by Kinomescan method relative to control"}, "[19]": {"target": "RAC-gamma serine/threonine-protein kinase (Homo sapiens) (UniProt Q9Y243)", "assay": "Binding affinity to wild-type human partial length AKT3 expressed in bacterial expression system assessed as residual binding level at 1 uM by Kinomescan method relative to control"}, "[20]": {"target": "LIM domain kinase 1 (Homo sapiens) (UniProt P53667)", "assay": "Binding affinity to wild-type human full length LIMK1 (M1 to D647 residues) expressed in bacterial expression system assessed as residual binding level at 1 uM by Kinomescan method relative to control"}, "[21]": {"target": "Calcium/calmodulin-dependent protein kinase type 1 (Homo sapiens) (UniProt Q14012)", "assay": "Binding affinity to wild-type human full length CAMK1 (M1 to L370 residues) expressed in bacterial expression system assessed as residual binding level at 1 uM by Kinomescan method relative to control"}, "[22]": {"target": "Tyrosine-protein kinase Srms (Homo sapiens) (UniProt Q9H3Y6)", "assay": "Binding affinity to wild-type human partial length SRMS (L208 to P488 residues) expressed in mammalian expression system assessed as residual binding level at 1 uM by Kinomescan method relative to control"}, "[23]": {"target": "Cyclin-dependent kinase 5 (Homo sapiens) (UniProt Q00535)", "assay": "Binding affinity to wild-type human full length CDK5 (M1 to P292 residues) expressed in bacterial expression system assessed as residual binding level at 1 uM by Kinomescan method relative to control"}, "[24]": {"target": "Serine/threonine-protein kinase PRP4 homolog (Homo sapiens) (UniProt Q13523)", "assay": "Binding affinity to wild-type human partial length PRP4 (D657 to I1007 residues) expressed in bacterial expression system assessed as residual binding level at 1 uM by Kinomescan method relative to control"}, "[25]": {"target": "Dual specificity protein kinase CLK1 (Homo sapiens) (UniProt P49759)", "sequence (P49759 whole entry, looked up, the tested form may be a part)": "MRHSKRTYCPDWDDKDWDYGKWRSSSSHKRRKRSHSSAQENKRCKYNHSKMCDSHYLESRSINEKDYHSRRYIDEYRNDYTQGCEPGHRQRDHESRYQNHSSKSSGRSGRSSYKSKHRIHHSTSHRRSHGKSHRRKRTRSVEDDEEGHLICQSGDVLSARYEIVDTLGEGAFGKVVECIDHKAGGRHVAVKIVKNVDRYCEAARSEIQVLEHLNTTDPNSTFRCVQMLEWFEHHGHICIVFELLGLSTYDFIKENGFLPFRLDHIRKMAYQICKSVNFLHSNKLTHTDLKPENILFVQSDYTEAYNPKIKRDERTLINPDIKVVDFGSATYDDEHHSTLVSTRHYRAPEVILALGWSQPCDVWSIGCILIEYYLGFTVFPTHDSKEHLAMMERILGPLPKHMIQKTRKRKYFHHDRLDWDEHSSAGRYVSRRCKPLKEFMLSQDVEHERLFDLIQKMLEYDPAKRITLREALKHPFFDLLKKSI", "assay": "Binding affinity to wild-type human full length CLK1 (M1 to I484 residues) expressed in bacterial expression system assessed as residual binding level at 1 uM by Kinomescan method relative to control"}},
  "data": [
    {"smiles": "CC(C)Nc1sc(C(=O)c2ccc(Cl)s2)c(N)c1C#N", "values": [
      {"measurement": "Activity", "setting": "[1]", "value": 100, "unit": "%"},
      {"measurement": "Activity", "setting": "[2]", "value": 84, "unit": "%"},
      {"measurement": "Activity", "setting": "[3]", "value": 89, "unit": "%"},
      {"measurement": "Activity", "setting": "[4]", "value": 100, "unit": "%"},
      {"measurement": "Activity", "setting": "[5]", "value": 100, "unit": "%"},
      {"measurement": "Activity", "setting": "[6]", "value": 82, "unit": "%"},
      {"measurement": "Activity", "setting": "[7]", "value": 84, "unit": "%"},
      {"measurement": "Activity", "setting": "[8]", "value": 80, "unit": "%"},
      {"measurement": "Activity", "setting": "[9]", "value": 95, "unit": "%"},
      {"measurement": "Activity", "setting": "[10]", "value": 59, "unit": "%"},
      {"measurement": "Activity", "setting": "[11]", "value": 100, "unit": "%"},
      {"measurement": "Activity", "setting": "[12]", "value": 61, "unit": "%"},
      {"measurement": "Activity", "setting": "[13]", "value": 100, "unit": "%"},
      {"measurement": "Activity", "setting": "[14]", "value": 82, "unit": "%"},
      {"measurement": "Activity", "setting": "[15]", "value": 100, "unit": "%"},
      {"measurement": "Activity", "setting": "[16]", "value": 100, "unit": "%"},
      {"measurement": "Activity", "setting": "[17]", "value": 24, "unit": "%"},
      {"measurement": "Activity", "setting": "[18]", "value": 100, "unit": "%"},
      {"measurement": "Activity", "setting": "[19]", "value": 100, "unit": "%"},
      {"measurement": "Activity", "setting": "[20]", "value": 55, "unit": "%"},
      {"measurement": "Activity", "setting": "[21]", "value": 91, "unit": "%"},
      {"measurement": "Activity", "setting": "[22]", "value": 91, "unit": "%"},
      {"measurement": "Activity", "setting": "[23]", "value": 100, "unit": "%"},
      {"measurement": "Activity", "setting": "[24]", "value": 100, "unit": "%"},
      {"measurement": "Activity", "setting": "[25]", "value": 70, "unit": "%"}
    ]}
  ]
}
